Test results taken from patent publication US5534533A, “Carboxylate derivatives exhibiting phospholipase A2 inhibitory activity” (Shionogi & Co., Ltd., priority 1993, dated 1996).

Columns and labels:
[1] = molecular target: T1, intracellular PLA2 (cytosolic PLA2, cPLA2) (Homo sapiens, UniProt P47712); assay: Intracellular PLA2 (cPLA2) inhibitory activity (14C-arachidonyl phosphatidylcholine substrate); format: biochemical; settings: 2 μM radiolabelled phosphatidylcholine, 1 μM dioleoylglycerol, 1 mM CaCl2, pH 7.4; read-out: c-PLA2 Inhibition IC50
T1 sequence (P47712 1-749): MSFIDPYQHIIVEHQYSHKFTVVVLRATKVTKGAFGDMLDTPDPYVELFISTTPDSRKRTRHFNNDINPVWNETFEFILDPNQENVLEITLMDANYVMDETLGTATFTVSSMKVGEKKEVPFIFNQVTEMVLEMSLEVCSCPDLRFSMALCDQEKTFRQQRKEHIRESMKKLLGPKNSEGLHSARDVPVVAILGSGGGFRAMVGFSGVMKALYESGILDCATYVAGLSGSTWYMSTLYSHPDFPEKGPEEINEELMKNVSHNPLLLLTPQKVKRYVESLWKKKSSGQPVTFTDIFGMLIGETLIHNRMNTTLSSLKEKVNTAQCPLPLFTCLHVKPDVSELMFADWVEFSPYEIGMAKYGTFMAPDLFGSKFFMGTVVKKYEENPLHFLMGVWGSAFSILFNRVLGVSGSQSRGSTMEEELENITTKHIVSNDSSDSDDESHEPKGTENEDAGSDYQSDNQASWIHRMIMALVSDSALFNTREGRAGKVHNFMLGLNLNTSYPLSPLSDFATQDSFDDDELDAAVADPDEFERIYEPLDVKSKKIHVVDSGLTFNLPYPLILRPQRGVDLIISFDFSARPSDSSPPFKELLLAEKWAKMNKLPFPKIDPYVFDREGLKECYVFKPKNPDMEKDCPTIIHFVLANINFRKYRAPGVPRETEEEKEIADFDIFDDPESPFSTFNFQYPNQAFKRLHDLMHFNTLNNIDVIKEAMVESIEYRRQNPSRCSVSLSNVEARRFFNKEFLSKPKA
Description: cPLA2 activity was assayed according to the method described in R. M. Kramer, E. F. Roberts, J. Manetta and J. E. Putnam, J. Biol. Chem., 268 (8), 5268-5272 (1991). Briefly, intracellular PLA2 activity was assayed using supersonic treated […] which contain 1-palmitoyl-2-[^14 C]arachidonyl-sn-glycero-3-phosphocholine and sn-1, 2-dioleoylglycerol at a molar ratio of 2:1. This test mixture contained 1 mM CaCl2, 2 mM dithiothreitol, 150 mM NaCl, 50 mM Hepes, pH 7.4 and 0.1 mg/ml BSA. A substrate is a 2 μM radioisotope labelled phosphatidylcholine ribosome containing 1 μM dioleoylglycerol. IC50 value is calculating in the same manner as in calculating it for secretory PLA2 inhibitory activity.

[2] = molecular target: T2, Human secretory PLA2 (Homo sapiens, UniProt P14555); assay: Secretory PLA2 inhibitory activity (diheptanoyl thio PC substrate, absorbance at 405 nm); format: biochemical; settings: diheptanoyl thio PC 1 mM, Triton X100 0.3 mM, pH 7.3, CaCl2 10 mM, 30 minutes, read-out: s-PLA2 Inhibition IC50
T2 sequence (P14555 21-144): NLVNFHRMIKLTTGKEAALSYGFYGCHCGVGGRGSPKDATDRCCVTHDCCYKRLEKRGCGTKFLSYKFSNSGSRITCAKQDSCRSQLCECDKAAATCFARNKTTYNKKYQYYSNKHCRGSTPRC
Description: Secretory PLA2 activity was assayed according to the method described in Penynolds L. J., Hughes L. L., Dennis E. A. et al. Anal. Biochem. 201,190-197 (1992).
Diheptanoyl thiophosphatidylcholine which was prepared according to the procedure described in the literature was used as a substrate. Human secretory PLA2 was used as an enzyme. The diheptanoyl thio PC (1 mM) was reacted with the human secretory PLA2 in the presence of Triton X100 (0.3 mM) and 5,5'-dithiobis-(2-nitrobenzoic acid) (125 μM) in Tris buffer (25 mM, pH 7.3), CaCl2 (10 mM), KCI (100 mM), bovine serum albumin (1.0 mg/ml), and then the change in absorbance at 405 nm at the time of 30 minutes after the reaction was assayed.
Inhibitory activity (%) was estimated by the formula: [(the change in absorbance with the inhibitor and PLA2 ·the change in absorbance with the inhibitor and without PLA2)/(the change in absorbance without the inhibitor and with PLA2 ·the change in absorbance without the inhibitor and PLA2)]×100.
IC50 value (μM) was calculated from graph showing inhibitory values on the vertical axis and log of concentrations of the inhibitor on the horizontal axis.

Row | Compound | IC50 [1] | IC50 [2]
1 | COc1c(C)c(OC(=O)c2c(C)c(C)c(OCCC=C(c3ccccc3)c3ccccc3)c(C)c2OC)c(C)c(C)c1C(=O)O [Example 48, 4-[4-(4,4-Diphenylbut-3-enyloxy)-2-methoxy-3,5,6-trimethylbenzoyloxy]-2-methoxy-3,5,6-trimethylbenzoic Acid] | 3 µM | 12 µM
2 | COc1c(C)c(OC(=O)c2c(C)c(C)c(OCCC(C)CCCC(C)C)c(C)c2OC)c(C)c(C)c1C(=O)O (stereo not shown) [Example 50, 4-[4-(3,7-Dimethyloctyloxy)-2-methoxy-3,5,6-trimethylbenzoyloxy]-2-methoxy-3,5,6-trimethylbenzoic Acid] | 3 µM | 50 µM
3 | COc1c(C)c(OC(=O)c2c(C)c(C)c(OCCCN(S(=O)(=O)c3ccccc3)S(=O)(=O)c3ccccc3)c(C)c2OC)c(C)c(C)c1C(=O)O [Example 51, 4-{4-[(3-Bisphenylsulfonylamino)propoxy]-2-methoxy-3,5,6-trimethylbenzoyloxy}-2-methoxy-3,5,6-trimethylbenzoic Acid] | 4.2 µM | 2.1 µM
4 | COc1c(C)c(OC(=O)c2c(C)c(C)c(OCCCN(S(C)(=O)=O)S(=O)(=O)c3ccccc3)c(C)c2OC)c(C)c(C)c1C(=O)O [Example 52] | 21 µM | 4.5 µM
5 | COc1c(C)c(OC(=O)c2c(C)c(C)c(OCCCN(C)S(=O)(=O)c3ccccc3)c(C)c2OC)c(C)c(C)c1C(=O)O [Example 53] | 20 µM | 6 µM
6 | COc1c(C)c(OC(=O)c2c(C)c(C)c(OCCCNS(=O)(=O)c3ccccc3)c(C)c2OC)c(C)c(C)c1C(=O)O [Example 54, 4-{4-[(3-Phenylsulfonylamino)propoxy]-2-methoxy-3,5,6-trimethylbenzoyloxy}-2-methoxy-3,5,6-trimethylbenzoic Acid] | > 50 µM | 17 µM
7 | COc1c(C)c(OC(=O)c2c(C)c(C)c(OCCCN(S(=O)(=O)c3ccc(F)cc3)S(=O)(=O)c3ccc(F)cc3)c(C)c2OC)c(C)c(C)c1C(=O)O [Example 55, 4-{4-[3-bis(4-Fluorophenyl)sulfonylaminopropoxy]-2-methoxy-3,5,6-trimethylbenzoyloxy}-2-methoxy-3,5,6-trimethylbenzoic Acid] | 6.3 µM | 6.8 µM
8 | COc1c(C)c(OC(=O)c2c(C)c(C)c(OCCCNS(=O)(=O)c3ccc(F)cc3)c(C)c2OC)c(C)c(C)c1C(=O)O [Example 56, 4-{4-[3-(4-Fluorophenyl)sulfonylaminopropoxy]-2-methoxy-3,5,6-trimethylbenzoyloxy}-2-methoxy-3,5,6 trimethylbenzoic Acid] | > 50 µM | 14 µM
9 | COc1c(C)c(OC(=O)c2c(C)c(C)c(OCCCN(S(C)(=O)=O)S(=O)(=O)c3ccc(F)cc3)c(C)c2OC)c(C)c(C)c1C(=O)O [Example 57, 4-{4-[3-Methylsulfonyl-(4-fluorophenyl)sulfonylaminopropoxy]-2-methoxy-3,5,6-trimethylbenzoyloxy}-2-methoxy-3,5,6-trimethylbenzoic Acid] | 16 µM | 5.7 µM
10 | COc1c(C)c(OC(=O)c2c(C)c(C)c(OCCCN(C)S(=O)(=O)c3ccc(F)cc3)c(C)c2OC)c(C)c(C)c1C(=O)O [Example 58, 4-{4-[3-Methyl-(4-fluorophenyl)sulfonylaminopropoxy]-2-methoxy-3,5,6-trimethylbenzoyloxy}-2-methoxy-3,5,6-trimethylbenzoic Acid] | 26 µM | 5.3 µM
11 | COc1c(C)c(OC(=O)c2c(C)c(C)c(OCCCN(C(=O)OC(C)(C)C)S(C)(=O)=O)c(C)c2OC)c(C)c(C)c1C(=O)O [Example 59, 4-[4-(3-t-Butoxycarbonylmethylsulfonylaminopropoxy)-2-methoxy-3,5,6-trimethylbenzoyloxy]-2-methoxy-3,5,6-trimethylbenzoic Acid] | > 50 µM | 11 µM
12 | COc1c(C)c(OC(=O)c2c(C)c(C)c(OCCCN(S(C)(=O)=O)S(C)(=O)=O)c(C)c2OC)c(C)c(C)c1C(=O)O [Example 60, 4-[4-(3-bis-Methylsulfonylaminopropoxy)-2-methoxy-3,5,6-trimethylbenzoyloxy]-2-methoxy-3,5,6-trimethylbenzoic Acid] | > 50 µM | 28 µM
13 | COc1c(C)c(OC(=O)c2c(C)c(C)c(OCCCNC(=O)c3ccccc3)c(C)c2OC)c(C)c(C)c1C(=O)O [Example 61, 4-[4-(3-Benzoylaminopropoxy)-2-methoxy-3,5,6-trimethylbenzoyloxy}-2-methoxy-3,5,6-trimethylbenzoic Acid] | > 50 µM | 33 µM
14 | COc1c(C)c(OC(=O)c2c(C)c(C)c(OCCCN(C(=O)c3ccccc3)C(=O)c3ccccc3)c(C)c2OC)c(C)c(C)c1C(=O)O [Example 62, 4-[4-(3-Dibenzoylaminopropoxy)-2-methoxy-3,5,6-trimethylbenzoyloxy}-2-methoxy-3,5,6-trimethylbenzoic Acid] | 9.5 µM | 3.8 µM
15 | COc1c(C)c(OC(=O)c2c(C)c(C)c(OCCCN(Cc3ccccc3)Cc3ccccc3)c(C)c2OC)c(C)c(C)c1C(=O)O [Example 63, 4-{4-[3-(bis-Benzylamino)propoxy]-2-methoxy-3,5,6-trimethylbenzoyloxy}-2-methoxy-3,5,6-trimethylbenzoic Acid] | 2.5 µM | 12 µM
16 | COc1c(C)c(OC(=O)c2c(C)c(C)c(OCCCN3C(=O)c4ccccc4C3=O)c(C)c2OC)c(C)c(C)c1C(=O)O [Example 64, 4-{4-[3-(1,3-Dioxo-1,3-dihydroisoindol-2-yl)-propoxy]-2-methoxy-3,5,6-trimethylbenzoyloxy}-2-methoxy-3,5,6-trimethylbenzoic Acid] | 25 µM | 6.4 µM
17 | COc1c(C)c(OC(=O)c2c(C)c(C)c(OCCCN3C(=O)c4ccccc4S3(=O)=O)c(C)c2OC)c(C)c(C)c1C(=O)O [Example 65, 4-{4-[3-(1, 1 -Dihydroxy-3-oxo-3H-benzo[d]-isothiazole-2-yl)propoxy]-2-methoxy-3,5,6-trimethylbenzoyloxy}-2-methoxy-3,5,6-trimethylbenzoic Acid] | 21 µM | 6.7 µM
18 | COc1c(C)c(OC(=O)c2c(C)c(C)c(OCCCN3CCC(=C(c4ccccc4)c4ccccc4)CC3)c(C)c2OC)c(C)c(C)c1C(=O)O [Example 66, 4-{4-[3-(4-Benzhydrylidenepiperidin-1-yl)-propoxy]-2-methoxy-3,5,6-trimethylbenzoyloxy}-2-methoxy-3,5,6-trimethylbenzoic Acid] | 6.8 µM | 18 µM
19 | COc1c(C)c(OC(=O)c2c(C)c(C)c(OCCCN3CCN(C(c4ccccc4)c4ccccc4)CC3)c(C)c2OC)c(C)c(C)c1C(=O)O [Example 67, 4-{4-[3-(Di-Phenylmethylpiperazin-1-yl)propoxy]-2-methoxy-3,5,6-trimethylbenzoyloxy}-2-methoxy-3,5,6-trimethylbenzoic Acid] | 5.1 µM | 17 µM
20 | COc1c(C)c(OC(=O)c2c(C)c(C)c(OCCCN3CCN(C(c4ccc(F)cc4)c4ccc(F)cc4)CC3)c(C)c2OC)c(C)c(C)c1C(=O)O [Example 68, 4-{4-[3-(Di-4-Fluorophenylmethylpiperazin-1-yl)-propoxy]-2-methoxy-3,5,6-trimethylbenzoyloxy}-2-methoxy-3,5,6-trimethylbenzoic Acid] | 11 µM | 17 µM
